Data taken from US8192962B2, “Processes for detecting toxic substances” (Daikin Industries, Ltd., priority 2001, dated 2012).

Tested on: Transport facilitation protein genes
Experiment: DNA chip mRNA expression in yeast, transport facilitation protein genes (Table 5)
Format: cell-based, Saccharomyces cerevisiae S288C
Procedure, shortened: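 Cells were grown at 25° C. in YPD, treated at logarithmic phase for 2 h with a chemical at a concentration inhibiting growth but not causing death, and compared with untreated cultures. Labeled cDNA was hybridized to a DNA chip carrying all yeast genes, and the expression ratio was taken from scanner fluorescence.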

[Cl][Pb][Cl] [(4), PbCl2]
The level of expressed mRNA in the presence of chemical substance/The level of expressed mRNA in the absence of chemical substance (yeast gene YGR260W): 0.8 | The level of expressed mRNA in the presence of chemical substance/The level of expressed mRNA in the absence of chemical substance (yeast gene YGR281W): 2.2 | The level of expressed mRNA in the presence of chemical substance/The level of expressed mRNA in the absence of chemical substance (yeast gene YHL035C): 1.9 | The level of expressed mRNA in the presence of chemical substance/The level of expressed mRNA in the absence of chemical substance (yeast gene YHL040C): 0.4 | The level of expressed mRNA in the presence of chemical substance/The level of expressed mRNA in the absence of chemical substance (yeast gene YHL047C): 1.0 | The level of expressed mRNA in the presence of chemical substance/The level of expressed mRNA in the absence of chemical substance (yeast gene YHR026W): 1.0 | The level of expressed mRNA in the presence of chemical substance/The level of expressed mRNA in the absence of chemical substance (yeast gene YHR092C): 2.5 | The level of expressed mRNA in the presence of chemical substance/The level of expressed mRNA in the absence of chemical substance (yeast gene YHR094C): 1.6 | The level of expressed mRNA in the presence of chemical substance/The level of expressed mRNA in the absence of chemical substance (yeast gene YHR175W): 1.5 | The level of expressed mRNA in the presence of chemical substance/The level of expressed mRNA in the absence of chemical substance (yeast gene YIL006W): 2.9 | The level of expressed mRNA in the presence of chemical substance/The level of expressed mRNA in the absence of chemical substance (yeast gene YIL022W): 1.6 | The level of expressed mRNA in the presence of chemical substance/The level of expressed mRNA in the absence of chemical substance (yeast gene YIL056W): 1.4 | The level of expressed mRNA in the presence of chemical substance/The level of expressed mRNA in the absence of chemical substance (yeast gene YIL088C): 1.3 | The level of expressed mRNA in the presence of chemical substance/The level of expressed mRNA in the absence of chemical substance (yeast gene YJL034W): 0.8 | The level of expressed mRNA in the presence of chemical substance/The level of expressed mRNA in the absence of chemical substance (yeast gene YJL212C): 0.5 | The level of expressed mRNA in the presence of chemical substance/The level of expressed mRNA in the absence of chemical substance (yeast gene YJL219W): 1.6 | The level of expressed mRNA in the presence of chemical substance/The level of expressed mRNA in the absence of chemical substance (yeast gene YJR077C): 1.6 | The level of expressed mRNA in the presence of chemical substance/The level of expressed mRNA in the absence of chemical substance (yeast gene YJR106W): 1.1 | The level of expressed mRNA in the presence of chemical substance/The level of expressed mRNA in the absence of chemical substance (yeast gene YJR121W): 1.0 | The level of expressed mRNA in the presence of chemical substance/The level of expressed mRNA in the absence of chemical substance (yeast gene YKL016C): 1.7 | The level of expressed mRNA in the presence of chemical substance/The level of expressed mRNA in the absence of chemical substance (yeast gene YKL146W): 0.9 | The level of expressed mRNA in the presence of chemical substance/The level of expressed mRNA in the absence of chemical substance (yeast gene YKR039W): 1.7 | The level of expressed mRNA in the presence of chemical substance/The level of expressed mRNA in the absence of chemical substance (yeast gene YKR067W): 2.5 | The level of expressed mRNA in the presence of chemical substance/The level of expressed mRNA in the absence of chemical substance (yeast gene YLL028W): 0.5 | The level of expressed mRNA in the presence of chemical substance/The level of expressed mRNA in the absence of chemical substance (yeast gene YLR081W): 3.6 | The level of expressed mRNA in the presence of chemical substance/The level of expressed mRNA in the absence of chemical substance (yeast gene YLR295C): 1.7 | The level of expressed mRNA in the presence of chemical substance/The level of expressed mRNA in the absence of chemical substance (yeast gene YLR348C): 1.2 | The level of expressed mRNA in the presence of chemical substance/The level of expressed mRNA in the absence of chemical substance (yeast gene YLR378C): 0.5 | The level of expressed mRNA in the presence of chemical substance/The level of expressed mRNA in the absence of chemical substance (yeast gene YMR011W): 5.5 | The level of expressed mRNA in the presence of chemical substance/The level of expressed mRNA in the absence of chemical substance (yeast gene YMR162C): 2.0 | The level of expressed mRNA in the presence of chemical substance/The level of expressed mRNA in the absence of chemical substance (yeast gene YMR203W): 1.4 | The level of expressed mRNA in the presence of chemical substance/The level of expressed mRNA in the absence of chemical substance (yeast gene YNL055C): 2.0 | The level of expressed mRNA in the presence of chemical substance/The level of expressed mRNA in the absence of chemical substance (yeast gene YNL259C): 1.2 | The level of expressed mRNA in the presence of chemical substance/The level of expressed mRNA in the absence of chemical substance (yeast gene YNR072W): 0.7 | The level of expressed mRNA in the presence of chemical substance/The level of expressed mRNA in the absence of chemical substance (yeast gene YOL119C): 2.3 | The level of expressed mRNA in the presence of chemical substance/The level of expressed mRNA in the absence of chemical substance (yeast gene YOL156W): 1.1 | The level of expressed mRNA in the presence of chemical substance/The level of expressed mRNA in the absence of chemical substance (yeast gene YOL163W): 3.3 | The level of expressed mRNA in the presence of chemical substance/The level of expressed mRNA in the absence of chemical substance (yeast gene YOR035C): 1.2 | The level of expressed mRNA in the presence of chemical substance/The level of expressed mRNA in the absence of chemical substance (yeast gene YOR130C): 1.0 | The level of expressed mRNA in the presence of chemical substance/The level of expressed mRNA in the absence of chemical substance (yeast gene YOR153W): 1.1 | The level of expressed mRNA in the presence of chemical substance/The level of expressed mRNA in the absence of chemical substance (yeast gene YOR273C): 1.0 | The level of expressed mRNA in the presence of chemical substance/The level of expressed mRNA in the absence of chemical substance (yeast gene YOR316C): 1.5 | The level of expressed mRNA in the presence of chemical substance/The level of expressed mRNA in the absence of chemical substance (yeast gene YOR328W): 1.0 | The level of expressed mRNA in the presence of chemical substance/The level of expressed mRNA in the absence of chemical substance (yeast gene YOR332W): 1.0 | The level of expressed mRNA in the presence of chemical substance/The level of expressed mRNA in the absence of chemical substance (yeast gene YOR348C): 2.0 | The level of expressed mRNA in the presence of chemical substance/The level of expressed mRNA in the absence of chemical substance (yeast gene YPL036W): 0.9 | The level of expressed mRNA in the presence of chemical substance/The level of expressed mRNA in the absence of chemical substance (yeast gene YPL134C): 1.6 | The level of expressed mRNA in the presence of chemical substance/The level of expressed mRNA in the absence of chemical substance (yeast gene YPL271W): 1.2 | The level of expressed mRNA in the presence of chemical substance/The level of expressed mRNA in the absence of chemical substance (yeast gene YPR192W): 5.0 | The level of expressed mRNA in the presence of chemical substance/The level of expressed mRNA in the absence of chemical substance (yeast gene YPR194C): 2.9
